According to paper PMC8843100, “Development of newly synthesised quinazolinone-based CDK2 inhibitors with potent efficacy against melanoma” (Journal of Enzyme Inhibition and Medicinal Chemistry, 2022):

How the values were obtained:
[1] = system: A498; assay: NCI-60 single dose screen, sulforhodamine B; type: cell-based, human; settings: Renal cancer A498; single dose 10^−5 M
Method: (§1) In this research, all of the newly synthesised quinazolinones were subjected to in vitro anticancer screening by the National Cancer Institute (USA) against 60 different human cell lines including leukaemia, non-small cell lung cancer, colon cancer, CNS cancer, melanoma, ovarian cancer, renal cancer, prostate cancer, and breast cancer. The tested compounds were evaluated at a single dose (10^−5 M). […] Regarding the benzenesulfonamide counterparts, the introduction of an electron-withdrawing group on the benzenesulfonamide moiety increased the inhibitory activity on the glioblastoma cell line SNB-75 as depicted by the chloro derivative 5c (GI% = 63.09) which was higher than that of the unsubstituted derivative 5a (GI% = 40.06) and the methyl derivative 5b (GI% = 33.03).
(§2) 1. Cytotoxicity screening against a panel of 60 human tumor cell lines
(§3) All the compounds were selected for NCI-60 Human Tumor Cell Lines Screen by the Developmental Therapeutics Program (DTP) at the National Cancer Institute (NCI), Maryland, USA. The operation of this screen utilizes 60 different human tumor cell lines, representing leukemia, non-small-cell lung cancer, colon cancer, CNS cancer, melanoma, ovarian cancer, renal cancer, prostate cancer and breas t cancer.
(§4) The compounds were supplied as dry powder and a single concentration is tested in all 60 cell lines at a single dose of 10 µM solution in dimethyl sulfoxide (DMSO) using Sulforhodamine B assay. Briefly, cells are seeded in 96 well plates at an appropriate density and incubated for 1 day. After 1 day, some of the plates are processed to determine the density time zero. To the remaining plates, compounds are added at 10 µM concentration. Plates are incubated a further 2 days, then fixed and staine d with sulphorhodamine B. Growth inhibition is calculated relative to cells without drug treatment and the time zero control. The use of a time zero control allows the determination of cell kill as well as net growth inhibition. […]

[2] = system: A549/ATCC; assay: NCI-60 single dose screen, sulforhodamine B; type: cell-based, human; settings: Non-small cell lung cancer A549/ATCC; single dose 10^−5 M
Method: as §1, §2, §3, §4

[3] = system: ACHN; assay: NCI-60 single dose screen, sulforhodamine B; type: cell-based, human; settings: Renal cancer ACHN; single dose 10^−5 M
Method: as §1, §2, §3, §4

[4] = system: BT-549; assay: NCI-60 single dose screen, sulforhodamine B; type: cell-based, human; settings: Breast cancer BT-549; single dose 10^−5 M
Method: as §1, §2, §3, §4

[5] = system: COLO 205; assay: NCI-60 single dose screen, sulforhodamine B; type: cell-based, human; settings: Colon cancer COLO 205; single dose 10^−5 M
Method: as §1, §2, §3, §4

[6] = system: EKVX; assay: NCI-60 single dose screen, sulforhodamine B; type: cell-based, human; settings: Non-small cell lung cancer EKVX; single dose 10^−5 M
Method: as §1, §2, §3, §4

[7] = system: HCT-15; assay: NCI-60 single dose screen, sulforhodamine B; type: cell-based, human; settings: Colon cancer HCT-15; single dose 10^−5 M
Method: as §1, §2, §3, §4

[8] = system: HOP-92; assay: NCI-60 single dose screen, sulforhodamine B; type: cell-based, human; settings: Non-small cell lung cancer HOP-92; single dose 10^−5 M
Method: as §1, §2, §3, §4

[9] = system: K-562; assay: NCI-60 single dose screen, sulforhodamine B; type: cell-based, human; settings: Leukaemia K-562; single dose 10^−5 M
Method: as §1, §2, §3, §4

[10] = system: M14; assay: NCI-60 single dose screen, sulforhodamine B; type: cell-based, human; settings: Melanoma M14; single dose 10^−5 M
Method: as §1, §2, §3, §4

[11] = system: MDA-MB-435; assay: NCI-60 single dose screen, sulforhodamine B; type: cell-based, human; settings: Melanoma MDA-MB-435; single dose 10^−5 M
Method: as §1, §2, §3, §4

[12] = system: MOLT-4; assay: NCI-60 single dose screen, sulforhodamine B; type: cell-based, human; settings: Leukaemia MOLT-4; single dose 10^−5 M
Method: as §1, §2, §3, §4

[13] = system: NCI-H226; assay: NCI-60 single dose screen, sulforhodamine B; type: cell-based, human; settings: Non-small cell lung cancer NCI-H226; single dose 10^−5 M
Method: as §1, §2, §3, §4

[14] = system: NCI-H322M; assay: NCI-60 single dose screen, sulforhodamine B; type: cell-based, human; settings: Non-small cell lung cancer NCI-H322M; single dose 10^−5 M
Method: as §1, §2, §3, §4

[15] = system: NCI-H522; assay: NCI-60 single dose screen, sulforhodamine B; type: cell-based, human; settings: Non-small cell lung cancer NCI-H522; single dose 10^−5 M
Method: as §1, §2, §3, §4

[16] = system: OVCAR-3; assay: NCI-60 single dose screen, sulforhodamine B; type: cell-based, human; settings: Ovarian cancer OVCAR-3; single dose 10^−5 M
Method: as §1, §2, §3, §4

[17] = system: OVCAR-4; assay: NCI-60 single dose screen, sulforhodamine B; type: cell-based, human; settings: Ovarian cancer OVCAR-4; single dose 10^−5 M
Method: as §1, §2, §3, §4

[18] = system: OVCAR-5; assay: NCI-60 single dose screen, sulforhodamine B; type: cell-based, human; settings: Ovarian cancer OVCAR-5; single dose 10^−5 M
Method: as §1, §2, §3, §4

[19] = system: PC-3; assay: NCI-60 single dose screen, sulforhodamine B; type: cell-based, human; settings: Prostate cancer PC-3; single dose 10^−5 M
Method: as §1, §2, §3, §4

[20] = system: RPMI-8226; assay: NCI-60 single dose screen, sulforhodamine B; type: cell-based, human; settings: Leukaemia RPMI-8226; single dose 10^−5 M
Method: as §1, §2, §3, §4

[21] = system: SF-268; assay: NCI-60 single dose screen, sulforhodamine B; type: cell-based, human; settings: CNS cancer SF-268; single dose 10^−5 M
Method: as §1, §2, §3, §4

[22] = system: SF-295; assay: NCI-60 single dose screen, sulforhodamine B; type: cell-based, human; settings: CNS cancer SF-295; single dose 10^−5 M
Method: as §1, §2, §3, §4

[23] = system: SF-539; assay: NCI-60 single dose screen, sulforhodamine B; type: cell-based, human; settings: CNS cancer SF-539; single dose 10^−5 M
Method: as §1, §2, §3, §4

[24] = system: SNB-19; assay: NCI-60 single dose screen, sulforhodamine B; type: cell-based, human; settings: CNS cancer SNB-19; single dose 10^−5 M
Method: as §1, §2, §3, §4

[25] = system: SNB-75; assay: NCI-60 single dose screen, sulforhodamine B; type: cell-based, human; settings: CNS cancer SNB-75; single dose 10^−5 M
Method: as §1, §2, §3, §4

[26] = system: SR; assay: NCI-60 single dose screen, sulforhodamine B; type: cell-based, human; settings: Leukaemia SR; single dose 10^−5 M
Method: as §1, §2, §3, §4

[27] = system: SW-620; assay: NCI-60 single dose screen, sulforhodamine B; type: cell-based, human; settings: Colon cancer SW-620; single dose 10^−5 M
Method: as §1, §2, §3, §4

[28] = system: TK-10; assay: NCI-60 single dose screen, sulforhodamine B; type: cell-based, human; settings: Renal cancer TK-10; single dose 10^−5 M
Method: as §1, §2, §3, §4

[29] = system: U251; assay: NCI-60 single dose screen, sulforhodamine B; type: cell-based, human; settings: CNS cancer U251; single dose 10^−5 M
Method: as §1, §2, §3, §4

[30] = system: UACC-62; assay: NCI-60 single dose screen, sulforhodamine B; type: cell-based, human; settings: Melanoma UACC-62; single dose 10^−5 M
Method: as §1, §2, §3, §4

[31] = system: UO-31; assay: NCI-60 single dose screen, sulforhodamine B; type: cell-based, human; settings: Renal cancer UO-31; single dose 10^−5 M
Method: as §1, §2, §3, §4

## O=C(CN1CCN(c2ccccc2)CC1)Nn1c(COc2ccccc2)nc2ccccc2c1=O [Compound 8b, N-(4-oxo-2-(phenoxymethyl)quinazolin-3(4H)-yl)-2–(4-phenylpiperazin-1-yl)acetamid]
[1]
  GI% at 10^−5 M: – (– means GI < 10%)
[2]
  GI% at 10^−5 M: – (– means GI < 10%)
[3]
  GI% at 10^−5 M: – (– means GI < 10%)
[4]
  GI% at 10^−5 M: – (– means GI < 10%)
[5]
  GI% at 10^−5 M: – (– means GI < 10%)
[6]
  GI% at 10^−5 M: – (– means GI < 10%)
[7]
  GI% at 10^−5 M: – (– means GI < 10%)
[8]
  GI% at 10^−5 M: – (– means GI < 10%)
[9]
  GI% at 10^−5 M: – (– means GI < 10%)
[10]
  GI% at 10^−5 M: – (– means GI < 10%)
[11]
  GI% at 10^−5 M: – (– means GI < 10%)
[12]
  GI% at 10^−5 M: – (– means GI < 10%)
[13]
  GI% at 10^−5 M: – (– means GI < 10%)
[14]
  GI% at 10^−5 M: – (– means GI < 10%)
[15]
  GI% at 10^−5 M: 11.45%
[16]
  GI% at 10^−5 M: – (– means GI < 10%)
[17]
  GI% at 10^−5 M: – (– means GI < 10%)
[18]
  GI% at 10^−5 M: – (– means GI < 10%)
[19]
  GI% at 10^−5 M: – (– means GI < 10%)
[20]
  GI% at 10^−5 M: – (– means GI < 10%)
[21]
  GI% at 10^−5 M: – (– means GI < 10%)
[22]
  GI% at 10^−5 M: – (– means GI < 10%)
[23]
  GI% at 10^−5 M: – (– means GI < 10%)
[24]
  GI% at 10^−5 M: – (– means GI < 10%)
[25]
  GI% at 10^−5 M: – (– means GI < 10%)
[26]
  GI% at 10^−5 M: – (– means GI < 10%)
[27]
  GI% at 10^−5 M: – (– means GI < 10%)
[28]
  GI% at 10^−5 M: – (– means GI < 10%)
[29]
  GI% at 10^−5 M: – (– means GI < 10%)
[30]
  GI% at 10^−5 M: – (– means GI < 10%)
[31]
  GI% at 10^−5 M: 20.18%
other
  melting point: 115 to 117 °C

## COc1ccc(N2CCN(CC(=O)Nn3c(COc4ccccc4)nc4ccccc4c3=O)CC2)cc1 [Compound 8c, 2–(4-(4-methoxyphenyl)piperazin-1-yl)-N-(4-oxo-2-(phenoxymethyl)quinazolin-3(4H)-yl)acetamide]
[1]
  GI% at 10^−5 M: 15.04%
[2]
  GI% at 10^−5 M: – (– means GI < 10%)
[3]
  GI% at 10^−5 M: – (– means GI < 10%)
[4]
  GI% at 10^−5 M: – (– means GI < 10%)
[5]
  GI% at 10^−5 M: – (– means GI < 10%)
[6]
  GI% at 10^−5 M: – (– means GI < 10%)
[7]
  GI% at 10^−5 M: – (– means GI < 10%)
[8]
  GI% at 10^−5 M: – (– means GI < 10%)
[9]
  GI% at 10^−5 M: – (– means GI < 10%)
[10]
  GI% at 10^−5 M: – (– means GI < 10%)
[11]
  GI% at 10^−5 M: – (– means GI < 10%)
[12]
  GI% at 10^−5 M: – (– means GI < 10%)
[13]
  GI% at 10^−5 M: – (– means GI < 10%)
[14]
  GI% at 10^−5 M: – (– means GI < 10%)
[15]
  GI% at 10^−5 M: 10.67%
[16]
  GI% at 10^−5 M: – (– means GI < 10%)
[17]
  GI% at 10^−5 M: – (– means GI < 10%)
[18]
  GI% at 10^−5 M: – (– means GI < 10%)
[19]
  GI% at 10^−5 M: 14.02%
[20]
  GI% at 10^−5 M: – (– means GI < 10%)
[21]
  GI% at 10^−5 M: – (– means GI < 10%)
[22]
  GI% at 10^−5 M: – (– means GI < 10%)
[23]
  GI% at 10^−5 M: – (– means GI < 10%)
[24]
  GI% at 10^−5 M: – (– means GI < 10%)
[25]
  GI% at 10^−5 M: 26.47%
[26]
  GI% at 10^−5 M: 12.84%
[27]
  GI% at 10^−5 M: – (– means GI < 10%)
[28]
  GI% at 10^−5 M: – (– means GI < 10%)
[29]
  GI% at 10^−5 M: – (– means GI < 10%)
[30]
  GI% at 10^−5 M: – (– means GI < 10%)
[31]
  GI% at 10^−5 M: 10.03%
other
  melting point: 100 to 102 °C
